Laboratory results from BindingDB's records for patent US20230365537 (Oric Pharmaceuticals, 2023).
“And” between values parts separate entries of the source, which are not always exact repeats. Equal entries are not always repeated.

Legend:
Aurora kinase A = molecular target: T1, Aurora kinase A (Homo sapiens, UniProt O14965); assay: Aurora A Kinase Biochemical Assay
T1 sequence (O14965 whole entry): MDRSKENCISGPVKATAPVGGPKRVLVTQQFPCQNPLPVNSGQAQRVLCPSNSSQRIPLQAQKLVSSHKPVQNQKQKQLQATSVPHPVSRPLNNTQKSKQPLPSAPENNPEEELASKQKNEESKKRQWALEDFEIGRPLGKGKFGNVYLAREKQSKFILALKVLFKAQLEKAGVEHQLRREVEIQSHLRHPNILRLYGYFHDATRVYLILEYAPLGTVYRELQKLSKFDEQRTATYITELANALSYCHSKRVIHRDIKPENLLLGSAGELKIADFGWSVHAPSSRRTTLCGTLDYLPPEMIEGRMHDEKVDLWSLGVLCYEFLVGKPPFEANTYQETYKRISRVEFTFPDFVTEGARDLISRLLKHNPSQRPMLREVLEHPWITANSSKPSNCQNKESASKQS
Description: (§1) Activity of human recombinant Aurora A (ThermoFisher, cat #PR5935A) was measured by quantification of adenosine diphosphate (ADP) using the ADP-Glo Kinase Assay Kit (Promega, cat #V9102). […] 5 µL of 5.0 nM Aurora A in assay buffer (50 mM HEPES, pH 7.5, 0.01% Brij-35, 0.01% BSA, 10 mM MgCl2, 1 mM EGTA, 1 mM DTT) was added to the plates. Test compounds and Aurora A were incubated for 15 minutes at room temperature (RT). […] Reactions were stopped and the remaining ATP depleted by adding 10uL of ADP-Glo reagent (Promega, cat#V912B) and incubating for 40 minutes at RT. The simultaneous conversion of the remaining ADP to ATP and measurement of the newly synthesized ATP was achieved by addition of 20 µL Kinase Detection reagent (Promega, cat #V914B), incubation for 30 min at RT, and luminescence detection using the EnVision plate reader (PerkinElmer). […] The IC50 values reported in Table 2 were determined using four parameter non-linear regression curve fit.

Aurora kinase B = Aurora kinase B (Homo sapiens, UniProt Q96GD4); assay: Aurora B Kinase Biochemical Assay
Description: as §1, with “Aurora B” for “Aurora A”, “cat #PR9210B)” for “cat #PR5935A)”, “of 20” for “of 5.0”, “parameter” for “parameter non-linear regression curve fit.”

[1] = molecular target: T2, Serine/threonine-protein kinase PLK4 (Homo sapiens, UniProt O00444); assay: PLK4 Biochemical Assay
T2 sequence (O00444 whole entry): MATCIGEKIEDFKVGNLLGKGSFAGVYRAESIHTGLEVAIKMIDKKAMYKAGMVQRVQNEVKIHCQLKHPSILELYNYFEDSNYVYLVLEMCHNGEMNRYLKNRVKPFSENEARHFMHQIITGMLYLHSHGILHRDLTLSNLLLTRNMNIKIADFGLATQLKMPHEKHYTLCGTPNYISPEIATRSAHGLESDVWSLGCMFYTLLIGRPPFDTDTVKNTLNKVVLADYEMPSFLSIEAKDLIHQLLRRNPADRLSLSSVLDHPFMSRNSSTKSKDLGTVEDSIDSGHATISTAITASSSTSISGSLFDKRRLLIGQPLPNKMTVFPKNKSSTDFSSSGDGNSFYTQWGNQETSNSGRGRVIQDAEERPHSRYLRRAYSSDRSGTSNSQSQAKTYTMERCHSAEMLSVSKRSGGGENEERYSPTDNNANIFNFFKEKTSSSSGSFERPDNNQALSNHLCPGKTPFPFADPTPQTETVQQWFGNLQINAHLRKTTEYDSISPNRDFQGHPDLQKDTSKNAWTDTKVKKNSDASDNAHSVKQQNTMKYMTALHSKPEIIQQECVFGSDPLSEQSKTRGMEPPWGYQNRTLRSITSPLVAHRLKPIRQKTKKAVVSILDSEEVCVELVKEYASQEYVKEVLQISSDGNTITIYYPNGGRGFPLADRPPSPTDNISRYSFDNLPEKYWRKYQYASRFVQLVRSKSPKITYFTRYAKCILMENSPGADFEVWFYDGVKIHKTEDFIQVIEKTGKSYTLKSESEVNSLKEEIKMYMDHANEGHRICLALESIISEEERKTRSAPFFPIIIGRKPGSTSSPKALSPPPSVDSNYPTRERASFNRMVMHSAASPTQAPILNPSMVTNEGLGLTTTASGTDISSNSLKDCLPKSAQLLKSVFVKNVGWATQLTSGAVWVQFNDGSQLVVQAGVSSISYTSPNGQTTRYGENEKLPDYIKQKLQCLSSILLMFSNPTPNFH
Description: as §1, with “recombinant PLK4” for “recombinant Aurora A”, “cat #PV6396)” for “cat #PR5935A)”, “of 1.0” for “of 5.0”, “nM PLK4 protein” for “nM Aurora A”, “and PLK4” for “and Aurora A”, “adding 10 µL” for “adding 10uL”

Aurora kinase B, sequence (Q96GD4 whole entry): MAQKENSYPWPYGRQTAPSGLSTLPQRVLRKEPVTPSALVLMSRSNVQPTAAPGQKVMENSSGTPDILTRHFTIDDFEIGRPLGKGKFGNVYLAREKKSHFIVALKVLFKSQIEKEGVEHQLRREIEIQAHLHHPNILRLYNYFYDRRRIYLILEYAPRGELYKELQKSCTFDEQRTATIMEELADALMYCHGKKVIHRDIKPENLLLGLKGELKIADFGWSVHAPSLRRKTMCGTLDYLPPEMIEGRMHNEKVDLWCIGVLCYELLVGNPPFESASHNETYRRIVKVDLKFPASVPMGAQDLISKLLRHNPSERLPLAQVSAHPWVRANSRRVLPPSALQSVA

| IC50 (Aurora kinase A) | IC50 (Aurora kinase B) | IC50 [1] | Structure (SMILES) |
| --- | --- | --- | --- |
| 1.86 µM and 2.03 µM | 0.521 µM and 1.06 µM |  | COc1ccc2c(c1)[C@]1(C[C@H]1c1ccc3c(Nc4ccc(S(C)(=O)=O)nc4OC)n[nH]c3c1)C(=O)N2 [US20230365537, Example 168] |
|  |  | 0.0028 µM | COc1ccc2c(c1)[C@]1(C[C@H]1c1ccc3c(Nc4cc(N5CCN(C)C5=O)cnc4OC)n[nH]c3c1)C(=O)N2 [US20230365537, Example 221] |
|  |  | 0.00402 µM | COc1ccc2c(c1)[C@]1(C[C@H]1c1ccc3c(Nc4cc(S(=O)(=O)C5CCOCC5)ccc4OC)n[nH]c3c1)C(=O)N2 [US20230365537, Example 224] |
